Reference: patent publication US6555091B1, “Polypeptide capable of reacting with antibodies of patients suffering from multiple sclerosis and uses” (Bio Merieux, priority 1997, dated 2003)

Legend:
[1] = test system: IgM of sera from MS patients and healthy individuals; assay: ELISA of biotinylated synthetic peptide, IgM response of individual human sera; type: binding; set-up: key to LINE (mark: serum recognizes the peptide): X: 7 sera out of 11 recognize this peptide; settings: 1/100; for LINE (mark: serum recognizes the peptide) / OD 1 / OD 2 / OD 3 / MEAN: IgM
Method: Depending on the information obtained from the preceding examples, the hexapeptides SEQ ID NO: 3 and SEQ ID NO: 4 were synthesized and biotinylated according to the method described in Patent Application No. EP 93420183 with the following modifications: the peptide still bound to the resin is selectively deprotected at the N-terminal position. After overnight incubation with the biotin-NHS at 50% in DMF, the peptide is then cleaved from the resin and treated as described in the patent cited above.
The wells of a Maxisorb (trade name, Nunc) microtiter plate are saturated with 100 μl of a 50 mM NaHCO3 solution, pH 9.6, containing 10 μg/ml of streptavidin for 2 hours at 37° C. The plate is washed with TBS/0.05% Tween 20 buffer. The wells are then saturated with 250 μl of wash buffer supplemented with 10% goat serum for 1 hour at 37° C. and then washed as described above.
The IgM response is determined by addition of a 1/4000 solution of mouse monoclonal antibody anti-alkaline phosphatase-labeled human M immunoglobulin conjugate (bioMérieux Ac 5A10D5). After incubation at 37° C. for one hour the plate is again washed and the p-nitrophenyl phosphate substrate at 1 mg/ml in an […] of diethanolamine, pH 9.8, containing 1 mM MgCl2, is added. The reaction is stopped after 30 minutes by the addition of 50 μl of 3N sodium hydroxide solution. The optical density is read at 405 nm.
This unit was therefore also synthesized and biotinylated.

[2] = test system: IgG of CSF from patients suffering from MS; assay: ELISA of polypeptides, IgG response of CSFs diluted 1/10 (Table 5, FIGS. 7A and 7B); type: binding, human; set-up: key to IgG recognition by CSF: positive (+) if the OD value at 492 nm for a 1/10 dilution of the CSF is greater than the mean values obtained for the CSFs from the ND patients+3 times the standard deviation
From the text: FIGS. 7A and 7B represents the IgG response of the polypeptides whose peptide sequence consists of, respectively, SEQ ID NO: 13, SEQ ID NO: 12, SEQ ID NO: 14, SEQ ID NO: 16, SEQ ID NO: 19 and SEQ ID NO: 15, with respect to CSFs diluted 1/10; the results assembled in the appended Table 5 are expressed by the difference in the optical density values obtained for the polypeptide tested and the values obtained for the HIV polypeptide used as control; ND corresponds to patients suffering from a neurological disease other than MS, and MS* corresponds to patients suffering from MS.
Table 5, illustrated in FIGS. 7A and 7B, collates the results on the specific recognition of CSF from patients suffering from MS for 6 polypeptides of the invention, SEQ ID NO: 13, SEQ ID NO: 12, SEQ ID NO: 14, SEQ ID NO: 16, SEQ ID NO: 19 and SEQ ID NO: 15.
For each polypeptide tested, identified in Table 5 by its peptide sequence, the CSFs from patients 1-22 suffering from Ms are determined as positive (+) if the OD value at 492 nm for a 1/10 dilution of the CSF is greater than the mean values obtained for the CSFs from the ND patients+3 times the standard deviation.

LAVRHD [SEQ ID NO: 8]
LINE (mark: serum recognizes the peptide) ([1]; serum 33/6 (MS+, remission)): X
OD 1 ([1]; serum 33/6 (MS+, remission)): 516 optical density (×1000)
OD 2 ([1]; serum 33/6 (MS+, remission)): 529 optical density (×1000)
OD 3 ([1]; serum 33/6 (MS+, remission)): 481 optical density (×1000)
MEAN ([1]; serum 33/6 (MS+, remission), (mean less Control 1, 173)): 336 optical density (×1000)
MEAN ([1]; serum 33/6 (MS+, remission), MEAN): 509 optical density (×1000)
LINE (mark: serum recognizes the peptide) ([1]; serum 33/8 (MS+, remission)): X
OD 1 ([1]; serum 33/8 (MS+, remission)): 609 optical density (×1000)
OD 2 ([1]; serum 33/8 (MS+, remission)): 512 optical density (×1000)
OD 3 ([1]; serum 33/8 (MS+, remission)): 568 optical density (×1000)
MEAN ([1]; serum 33/8 (MS+, remission), (mean less Control 1, 173)): 390 optical density (×1000)
MEAN ([1]; serum 33/8 (MS+, remission), MEAN): 563 optical density (×1000)
LINE (mark: serum recognizes the peptide) ([1]; serum 33/18 (MS+, remission)): X
OD 1 ([1]; serum 33/18 (MS+, remission)): 277 optical density (×1000)
OD 2 ([1]; serum 33/18 (MS+, remission)): 262 optical density (×1000)
OD 3 ([1]; serum 33/18 (MS+, remission)): 255 optical density (×1000)
MEAN ([1]; serum 33/18 (MS+, remission), (mean less Control 1, 173)): 92 optical density (×1000)
MEAN ([1]; serum 33/18 (MS+, remission), MEAN): 265 optical density (×1000)
OD 1 ([1]; serum No. 12 (MS−, healthy)): 222 optical density (×1000)
OD 2 ([1]; serum No. 12 (MS−, healthy)): 175 optical density (×1000)
OD 3 ([1]; serum No. 12 (MS−, healthy)): 163 optical density (×1000)
MEAN ([1]; serum No. 12 (MS−, healthy), (mean less Control 1, 173)): 14 optical density (×1000)
MEAN ([1]; serum No. 12 (MS−, healthy), MEAN): 187 optical density (×1000)
OD 1 ([1]; serum No. 13 (MS−, healthy)): 145 optical density (×1000)
OD 2 ([1]; serum No. 13 (MS−, healthy)): 154 optical density (×1000)
OD 3 ([1]; serum No. 13 (MS−, healthy)): 196 optical density (×1000)
MEAN ([1]; serum No. 13 (MS−, healthy), (mean less Control 1, 173)): −6 optical density (×1000)
MEAN ([1]; serum No. 13 (MS−, healthy), MEAN): 165 optical density (×1000)
OD 1 ([1]; serum No. 14 (MS−, healthy)): 320 optical density (×1000)
OD 2 ([1]; serum No. 14 (MS−, healthy)): 165 optical density (×1000)
OD 3 ([1]; serum No. 14 (MS−, healthy)): 143 optical density (×1000)
MEAN ([1]; serum No. 14 (MS−, healthy), (mean less Control 1, 173)): 36 optical density (×1000)
MEAN ([1]; serum No. 14 (MS−, healthy), MEAN): 209 optical density (×1000)
OD 1 ([1]; serum No. 15 (MS−, healthy)): 254 optical density (×1000)
OD 2 ([1]; serum No. 15 (MS−, healthy)): 205 optical density (×1000)
OD 3 ([1]; serum No. 15 (MS−, healthy)): 173 optical density (×1000)
MEAN ([1]; serum No. 15 (MS−, healthy), (mean less Control 1, 173)): 38 optical density (×1000)
MEAN ([1]; serum No. 15 (MS−, healthy), MEAN): 211 optical density (×1000)
LINE (mark: serum recognizes the peptide) ([1]; serum QS 2 (MS+, remission)): X
OD 1 ([1]; serum QS 2 (MS+, remission)): 281 optical density (×1000)
OD 2 ([1]; serum QS 2 (MS+, remission)): 280 optical density (×1000)
OD 3 ([1]; serum QS 2 (MS+, remission)): 231 optical density (×1000)
MEAN ([1]; serum QS 2 (MS+, remission), (mean less Control 1, 173)): 91 optical density (×1000)
MEAN ([1]; serum QS 2 (MS+, remission), MEAN): 264 optical density (×1000)
OD 1 ([1]; serum QS 3 (MS+, remission)): 191 optical density (×1000)
OD 2 ([1]; serum QS 3 (MS+, remission)): 169 optical density (×1000)
OD 3 ([1]; serum QS 3 (MS+, remission)): 164 optical density (×1000)
MEAN ([1]; serum QS 3 (MS+, remission), (mean less Control 1, 173)): 2 optical density (×1000)
MEAN ([1]; serum QS 3 (MS+, remission), MEAN): 175 optical density (×1000)
LINE (mark: serum recognizes the peptide) ([1]; serum QS 4 (MS+, remission)): X
OD 1 ([1]; serum QS 4 (MS+, remission)): 374 optical density (×1000)
OD 2 ([1]; serum QS 4 (MS+, remission)): 361 optical density (×1000)
OD 3 ([1]; serum QS 4 (MS+, remission)): 346 optical density (×1000)
MEAN ([1]; serum QS 4 (MS+, remission), (mean less Control 1, 173)): 187 optical density (×1000)
MEAN ([1]; serum QS 4 (MS+, remission), MEAN): 360 optical density (×1000)
OD 1 ([1]; serum QS 6 (MS+, remission)): 156 optical density (×1000)
OD 2 ([1]; serum QS 6 (MS+, remission)): 147 optical density (×1000)
OD 3 ([1]; serum QS 6 (MS+, remission)): 151 optical density (×1000)
MEAN ([1]; serum QS 6 (MS+, remission), (mean less Control 1, 173)): −22 optical density (×1000)
MEAN ([1]; serum QS 6 (MS+, remission), MEAN): 151 optical density (×1000)
LINE (mark: serum recognizes the peptide) ([1]; serum QS 7 (MS+, remission)): X
OD 1 ([1]; serum QS 7 (MS+, remission)): 311 optical density (×1000)
OD 2 ([1]; serum QS 7 (MS+, remission)): 290 optical density (×1000)
OD 3 ([1]; serum QS 7 (MS+, remission)): 164 optical density (×1000)
MEAN ([1]; serum QS 7 (MS+, remission), (mean less Control 1, 173)): 82 optical density (×1000)
MEAN ([1]; serum QS 7 (MS+, remission), MEAN): 265 optical density (×1000)
LINE (mark: serum recognizes the peptide) ([1]; serum QS 8 (MS+, remission)): X
OD 1 ([1]; serum QS 8 (MS+, remission)): 305 optical density (×1000)
OD 2 ([1]; serum QS 8 (MS+, remission)): 221 optical density (×1000)
OD 3 ([1]; serum QS 8 (MS+, remission)): 265 optical density (×1000)
MEAN ([1]; serum QS 8 (MS+, remission), (mean less Control 1, 173)): 91 optical density (×1000)
MEAN ([1]; serum QS 8 (MS+, remission), MEAN): 264 optical density (×1000)
OD 1 ([1]; serum QS 11 (MS+, remission)): 164 optical density (×1000)
OD 2 ([1]; serum QS 11 (MS+, remission)): 160 optical density (×1000)
OD 3 ([1]; serum QS 11 (MS+, remission)): 139 optical density (×1000)
MEAN ([1]; serum QS 11 (MS+, remission), (mean less Control 1, 173)): −19 optical density (×1000)
MEAN ([1]; serum QS 11 (MS+, remission), MEAN): 154 optical density (×1000)
OD 1 ([1]; serum QS 12 (MS+, remission)): 123 optical density (×1000)
OD 2 ([1]; serum QS 12 (MS+, remission)): 57 optical density (×1000)
OD 3 ([1]; serum QS 12 (MS+, remission)): 148 optical density (×1000)
MEAN ([1]; serum QS 12 (MS+, remission), (mean less Control 1, 173)): −64 optical density (×1000)
MEAN ([1]; serum QS 12 (MS+, remission), MEAN): 109 optical density (×1000)
MS sera recognizing the peptide, IgM response ([1]; same panel of 11 MS remission sera): 7 sera out of 11

MPVSRLCIELDWCPP (MSRV) [SEQ ID NO: 12]
IgG recognition by CSF ([2]; CSF of MS patient 1, 1/10): +
IgG recognition by CSF ([2]; CSF of MS patient 2, 1/10): +
IgG recognition by CSF ([2]; CSF of MS patient 5, 1/10): +
IgG recognition by CSF ([2]; CSF of MS patient 6, 1/10): +
IgG recognition by CSF ([2]; CSF of MS patient 7, 1/10): +
IgG recognition by CSF ([2]; CSF of MS patient 8, 1/10): +
IgG recognition by CSF ([2]; CSF of MS patient 10, 1/10): +
IgG recognition by CSF ([2]; CSF of MS patient 16, 1/10): +
IgG recognition by CSF ([2]; CSF of MS patient 18, 1/10): +
IgG recognition by CSF ([2]; CSF of MS patient 21, 1/10): +
number of positive (+) CSFs ([2]; total line, 15 MS patients, CSF 1/10): 10+
